Marks after values point to notes of the source that are not given here.
Legend:
CYP3A4 = settings: cited from earlier work
[1] = Safety and tolerability, all three studies; format: in vivo, human
[2] = cited from earlier work
[3] = cited from earlier work; remark: listed apart in the source
P‐gp = settings: Caco‐2 cell monolayers; transport strongly hindered by P‐gp inhibitors; cited from earlier work
OATP1B1 = settings: cited from earlier work
OAT1 = settings: cited from earlier work
OAT3 = settings: cited from earlier work
OCT2 = settings: cited from earlier work
[4] = Edoxaban-ketoconazole drug interaction study, plasma pharmacokinetics
[5] = Edoxaban-erythromycin drug interaction study, plasma pharmacokinetics
[6] = Edoxaban-cyclosporine drug interaction study, plasma pharmacokinetics
[7] = edoxaban + ketoconazole vs alone, reduced
[8] = edoxaban + erythromycin vs edoxaban alone
[9] = erythromycin study, edoxaban 60 mg alone, mean ± SD, n = 32
[10] = edoxaban + cyclosporine vs edoxaban alone
[11] = edoxaban + cyclosporine vs edoxaban alone, based on geometric LSM ratios

CC(=O)N1CCN(c2ccc(OCC3COC(Cn4ccnc4)(c4ccc(Cl)cc4Cl)O3)cc2)CC1 (centres unmarked) [ketoconazole]
degree of CYP3A4 inhibitory activity (CYP3A4): strong

CN1CCc2nc(C(=O)N[C@@H]3C[C@@H](C(=O)N(C)C)CC[C@@H]3NC(=O)C(=O)Nc3ccc(Cl)cn3)sc2C1 [Edoxaban]
serious adverse events [1]: No serious adverse events
tolerability ([1]; alone or in combination with ketoconazole, erythromycin, or cyclosporine): well tolerated
metabolism via CYP3A4, share of total clearance [2]: < 4%
oral (absolute) bioavailability [2]: 62%
increase in total exposure with quinidine ([3]; intravenous dosing of edoxaban): about 35%
increase in exposure with quinidine ([3]; oral edoxaban): about 68%
transport via P‐gp (P‐gp): transported via P‐gp
substrate of OATP1B1 (OATP1B1): not a substrate
substrate of OAT1 (OAT1): not a substrate
substrate of OAT3 (OAT3): not a substrate
substrate of OCT2 (OCT2): not a substrate
change in clearance [4, 7]: approximately 46%
change in volume of distribution [4, 7]: approximately 46%
increase in total exposure (AUC) ([4]; edoxaban + ketoconazole vs edoxaban alone): 87%
half-life ([4]; human, in vivo): ~11.5 h
AUC(0-inf) ([4]; human, in vivo, 60 mg): 1.65 ± 0.412 µg·h/mL
half-life ([4]; human, in vivo, 60 mg): 11.9 ± 4.11 h
Cmax ([4]; human, in vivo, po, 60 mg): 0.245 ± 0.0869 µg/mL
decrease in apparent volume of distribution [5, 8]: 63%
decrease in total apparent clearance [5, 8]: about 47%
increase in total exposure (AUC) [5, 8]: 85%
AUC (extrapolated to infinity) [5, 9]: 1740 ± 443.7 ^b ng h ml^–1
t1/2 [5, 9]: 10.24 ± 3.71 ^b h
Cmax ([5]; human, in vivo, po, 60 mg): 0.259 ± 0.1 µg/mL
increase in peak exposure [6, 10]: approximately 1.7 fold
increase in total exposure [6, 10]: approximately 1.7 fold
increase in peak exposure (Cmax) [6, 11]: 74%
increase in total exposure (AUC) [6, 11]: 73%
AUC(0-inf) ([6]; human, in vivo, 60 mg): 1.83 ± 0.363 µg·h/mL
Tmax ([6]; human, in vivo, 60 mg): 1.5 h
half-life ([6]; human, in vivo, 60 mg): 14.5 ± 5.34 h
